Data taken from patent US20250011368A1, “DLL3 TARGETING PEPTIDES AND CONSTRUCTS THEREOF” (MARIANA ONCOLOGY INC., priority 2023, published 2025).
Numbered stars: 1 amine (or outer) side, 2 acyl side, 3 side chain; on linkers, the order of the positions; unused ones are H or OH. Bridge positions count the residues as written; N and C are the ends. Square brackets hold non-standard residues; d marks the D form. Peptide text beside a SMILES is read from it. I, II: the chains in the order shown. * marks the point of attachment. ξ: configuration not given here. DOTA = O=C(O)CN1CCN(CC(=O)O)CCN(CC(=O)*)CCN(CC(=O)O)CC1; Trp(7-OMe) = COc1cccc2c(C[C@H](N)C(=O)O)c[nH]c12; Trp(7-Me) = Cc1cccc2c(C[C@H](N)C(=O)O)c[nH]c12; 2Nal = N[C@@H](Cc1ccc2ccccc2c1)C(=O)O; C12 diacid = O=C(O)CCCCCCCCCCC(=O)*; Palmitoyl = CCCCCCCCCCCCCCCC(=O)*; NMeL = CN[C@@H](CC(C)C)C(=O)O; NMeK = CN[C@@H](CCCCN)C(=O)O; Lauroyl = CCCCCCCCCCCC(=O)*; CH2 = C([*:1])[*:2]; ξP = O=C(O)C1CCCN1

Target: T1, human DLL3 (Homo sapiens, UniProt Q9NYJ7)
T1 sequence (Q9NYJ7 27-618): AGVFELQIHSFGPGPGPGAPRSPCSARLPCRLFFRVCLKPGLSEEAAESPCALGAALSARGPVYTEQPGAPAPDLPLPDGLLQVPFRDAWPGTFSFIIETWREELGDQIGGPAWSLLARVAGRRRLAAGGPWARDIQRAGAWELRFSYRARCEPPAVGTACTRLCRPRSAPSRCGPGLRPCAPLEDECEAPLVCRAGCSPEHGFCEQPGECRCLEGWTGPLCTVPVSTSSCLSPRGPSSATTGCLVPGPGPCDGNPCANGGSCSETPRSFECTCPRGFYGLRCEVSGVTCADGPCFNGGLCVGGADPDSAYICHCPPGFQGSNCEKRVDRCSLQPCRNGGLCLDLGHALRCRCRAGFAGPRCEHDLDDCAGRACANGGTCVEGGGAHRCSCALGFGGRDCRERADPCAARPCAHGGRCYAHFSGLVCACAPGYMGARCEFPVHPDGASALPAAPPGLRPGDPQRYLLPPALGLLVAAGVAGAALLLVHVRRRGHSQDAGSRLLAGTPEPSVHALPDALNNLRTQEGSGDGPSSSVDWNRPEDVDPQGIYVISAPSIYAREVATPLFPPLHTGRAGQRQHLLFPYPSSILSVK
Assay: Affinity determination by Surface Plasmon Resonance (SPR)
Type: binding
Conditions: 25° C., biotinylated human DLL3 immobilized on streptavidin sensor chip, 1:1 binding model; read-out: SPR KD
In short: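 Kinetic and affinity constants were derived by fitting sensorgrams to a 1:1 binding model. Graded compound concentrations flowed at 100 μL/minute in 20 mM phosphate running buffer with 2% DMSO over streptavidin-immobilized biotinylated human DLL3, reference-subtracted.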

CC[C@H](C)[C@H](NC(=O)[C@@H](NC(=O)[C@H](Cc1c[nH]c2ccccc12)NC(C)=O)[C@@H](C)O)C(=O)N[C@H]1CSSC[C@@H](C(=O)N[C@@H](Cc2c[nH]c3ccccc23)C(=O)N2CCC[C@H]2C(=O)N[C@H](CCCCNC(=O)CN2CCN(CC(=O)O)CCN(CC(=O)O)CCN(CC(=O)O)CC2)C(N)=O)NC(=O)[C@H](CC(=O)O)NC(=O)[C@H](Cc2cnc[nH]2)NC(=O)[C@H](Cc2c[nH]c3c(OC)cccc23)NC(=O)[C@H](CC(N)=O)NC(=O)[C@H](CC(N)=O)NC1=O [compound 296, Ac-W-T-I-C(3)-N-N-(7-MeO-W)-H-D-C(3)-W-P-[D-Lys(DOTA)]-NH2] (Ac-WTICNN[Trp(7-OMe)]HDCWP[dK](DOTA)-NH2; disulfide 4-10) and CC[C@H](C)[C@H](NC(=O)[C@@H](NC(=O)[C@H](Cc1c[nH]c2ccccc12)NC(C)=O)[C@@H](C)O)C(=O)N[C@H]1CSSC[C@@H](C(=O)N[C@@H](Cc2c[nH]c3c(OC)cccc23)C(=O)N2CCC[C@H]2C(=O)N[C@H](CCCCNC(=O)CN2CCN(CC(=O)O)CCN(CC(=O)O)CCN(CC(=O)O)CC2)C(N)=O)NC(=O)[C@H](CC(=O)O)NC(=O)[C@H](Cc2cnc[nH]2)NC(=O)[C@H](Cc2c[nH]c3ccccc23)NC(=O)[C@H](CC(N)=O)NC(=O)[C@H](CC(N)=O)NC1=O [compound 299, Ac-W-T-I-C(3)-N-N-W-H-D-C(3)-(7-MeO-W)-P-[D-Lys(DOTA)]-NH2] (Ac-WTICNNWHDC[Trp(7-OMe)]P[dK](DOTA)-NH2; disulfide 4-10) cannot be ordered by Kd: < 1 nM for the first, < 1 nM for the second.

CC[C@H](C)[C@H](NC(=O)[C@@H](NC(=O)[C@H](Cc1c[nH]c2ccccc12)NC(C)=O)[C@@H](C)O)C(=O)N[C@H]1CSSC[C@@H](C(=O)N[C@@H](Cc2c[nH]c3c(C)cccc23)C(=O)N2CCC[C@H]2C(=O)N[C@H](CCCCNC(=O)CN2CCN(CC(=O)O)CCN(CC(=O)O)CCN(CC(=O)O)CC2)C(N)=O)NC(=O)[C@H](CC(=O)O)NC(=O)[C@H](Cc2cnc[nH]2)NC(=O)[C@H](Cc2c[nH]c3ccccc23)NC(=O)[C@H](CC(N)=O)NC(=O)[C@H](CC(N)=O)NC1=O [compound 298, Ac-W-T-I-C(3)-N-N-W-H-D-C(3)-(7-Me-W)-P-[D-Lys(DOTA)]-NH2] (Ac-WTICNNWHDC[Trp(7-Me)]P[dK](DOTA)-NH2; disulfide 4-10) and CC[C@H](C)[C@H](NC(=O)[C@@H](NC(=O)[C@H](Cc1c[nH]c2c(OC)cccc12)NC(C)=O)[C@@H](C)O)C(=O)N[C@H]1CSSC[C@@H](C(=O)N[C@@H](Cc2c[nH]c3ccccc23)C(=O)N2CCC[C@H]2C(=O)N[C@H](CCCCNC(=O)CN2CCN(CC(=O)O)CCN(CC(=O)O)CCN(CC(=O)O)CC2)C(N)=O)NC(=O)[C@H](CC(=O)O)NC(=O)[C@H](Cc2cnc[nH]2)NC(=O)[C@H](Cc2ccc3ccccc3c2)NC(=O)[C@H](CC(N)=O)NC(=O)[C@H](CC(N)=O)NC1=O [compound 344, Ac-(7MeO-Trp)-T-I-C(3)-N-N-W-H-D-C(3)-W-P-[D-Lys(DOTA)]-CONH2] (Ac-[Trp(7-OMe)]TICNN[2Nal]HDCWP[dK](DOTA)-NH2; disulfide 4-10) cannot be ordered by Kd: < 1 nM for the first, < 1 nM for the second.

CC[C@H](C)[C@H](NC(=O)[C@@H](NC(=O)[C@H](Cc1c[nH]c2ccccc12)NC(C)=O)[C@@H](C)O)C(=O)N[C@H]1CSCSC[C@@H](C(=O)N[C@@H](Cc2c[nH]c3ccccc23)C(=O)N2CCCC2C(=O)N[C@@H](CCCCNC(=O)CN2CCN(CC(=O)O)CCN(CC(=O)O)CCN(CC(=O)O)CC2)C(N)=O)NC(=O)[C@H](CC(=O)O)NC(=O)[C@H](Cc2cnc[nH]2)NC(=O)[C@H](Cc2ccc3ccccc3c2)NC(=O)[C@H](CC(N)=O)NC(=O)[C@H](CC(N)=O)NC1=O (stereo partly drawn) [compound 329, Ac-W-T-I-C(1)-N-N-(2Nal)-H-D-C(1)-W-P-[L-Lys(DOTA)]-NH2] (Ac-WTICNN[2Nal]HDCW[ξP]K(DOTA)-NH2; linker 4-10 via CH2) and CC[C@H](C)[C@H](NC(=O)[C@@H](NC(=O)[C@H](Cc1c[nH]c2c(C)cccc12)NC(C)=O)[C@@H](C)O)C(=O)N[C@H]1CSCSC[C@@H](C(=O)N[C@@H](Cc2c[nH]c3ccccc23)C(=O)N2CCCC2C(=O)N[C@H](CCCCNC(=O)CN2CCN(CC(=O)O)CCN(CC(=O)O)CCN(CC(=O)O)CC2)C(N)=O)NC(=O)[C@H](CC(=O)O)NC(=O)[C@H](Cc2cnc[nH]2)NC(=O)[C@H](Cc2ccc3ccccc3c2)NC(=O)[C@H](CC(N)=O)NC(=O)[C@H](CC(N)=O)NC1=O (stereo partly drawn) [compound 330, Ac-7MeW-T-I-C(1)-N-N-(2Nal)-H-D-C(1)-W-P-[D-Lys(DOTA)]-NH2] (Ac-[Trp(7-Me)]TICNN[2Nal]HDCW[ξP][dK](DOTA)-NH2; linker 4-10 via CH2) cannot be ordered by Kd: < 1 nM for the first, < 1 nM for the second.

First: CC[C@H](C)[C@H](NC(=O)[C@@H](NC(=O)[C@H](Cc1c[nH]c2ccccc12)NC(C)=O)[C@@H](C)O)C(=O)N[C@H]1CSSC[C@@H](C(=O)N[C@@H](Cc2c[nH]c3ccccc23)C(=O)N(C)[C@@H](CC(C)C)C(=O)N[C@H](CCCCNC(=O)CN2CCN(CC(=O)O)CCN(CC(=O)O)CCN(CC(=O)O)CC2)C(N)=O)NC(=O)[C@H](CC(=O)O)NC(=O)[C@H](Cc2cnc[nH]2)NC(=O)[C@H](Cc2c[nH]c3ccccc23)NC(=O)[C@H](CC(N)=O)NC(=O)[C@H](CC(N)=O)NC1=O [compound 345, Ac-W-T-I-C(3)-N-N-W-H-D-C(3)-W-NmeL-[D-Lys(DOTA)]-NH2] (Ac-WTICNNWHDCW[NMeL][dK](DOTA)-NH2; disulfide 4-10)
Second: CC[C@H](C)[C@H](NC(=O)[C@@H](NC(=O)[C@H](Cc1c[nH]c2ccccc12)NC(C)=O)[C@@H](C)O)C(=O)N[C@H]1CSSC[C@@H](C(=O)N[C@@H](Cc2c[nH]c3ccccc23)C(=O)N(C)[C@@H](CCCCNC(=O)CN2CCN(CC(=O)O)CCN(CC(=O)O)CCN(CC(=O)O)CC2)C(N)=O)NC(=O)[C@H](CC(=O)O)NC(=O)[C@H](Cc2cnc[nH]2)NC(=O)[C@H](Cc2ccc3ccccc3c2)NC(=O)[C@H](CC(N)=O)NC(=O)[C@H](CC(N)=O)NC1=O [compound 352, Ac-W-T-I-C(3)-N-N-(2Nal)-H-D-C(3)-W-[NmeK(DOTA)]-NH2] (Ac-WTICNN[2Nal]HDCW[NMeK](DOTA)-NH2; disulfide 4-10)
The Kd of the first is higher: 1 to 10 nM for the first, < 1 nM for the second.

Compared with CCCCCCCCCCCC(=O)NCCCC[C@H](NC(=O)[C@@H](NC(=O)[C@H](Cc1c[nH]c2ccccc12)NC(C)=O)[C@@H](C)O)C(=O)N[C@H]1CSSC[C@@H](C(=O)N[C@@H](Cc2c[nH]c3ccccc23)C(=O)N2CCC[C@H]2C(=O)N[C@H](CCCCNC(=O)CN2CCN(CC(=O)O)CCN(CC(=O)O)CCN(CC(=O)O)CC2)C(N)=O)NC(=O)[C@H](CC(=O)O)NC(=O)[C@H](Cc2cnc[nH]2)NC(=O)[C@H](Cc2c[nH]c3ccccc23)NC(=O)[C@H](CC(N)=O)NC(=O)[C@H](CC(N)=O)NC1=O [compound 346, Ac-W-T-K(C12)-C(3)-N-N-W-H-D-C(3)-W-P-[D-Lys(DOTA)]-NH2] (Ac-WTK(Lauroyl)CNNWHDCWP[dK](DOTA)-NH2; disulfide 4-10), CCCCCCCCCCCCCCCC(=O)NCCCC[C@H](NC(=O)[C@@H](NC(=O)[C@H](Cc1c[nH]c2ccccc12)NC(C)=O)[C@@H](C)O)C(=O)N[C@H]1CSSC[C@@H](C(=O)N[C@@H](Cc2c[nH]c3ccccc23)C(=O)N2CCC[C@H]2C(=O)N[C@H](CCCCNC(=O)CN2CCN(CC(=O)O)CCN(CC(=O)O)CCN(CC(=O)O)CC2)C(N)=O)NC(=O)[C@H](CC(=O)O)NC(=O)[C@H](Cc2cnc[nH]2)NC(=O)[C@H](Cc2c[nH]c3ccccc23)NC(=O)[C@H](CC(N)=O)NC(=O)[C@H](CC(N)=O)NC1=O [compound 348, Ac-W-T-K(C16)-C(3)-N-N-W-H-D-C(3)-W-P-[D-Lys(DOTA)]-NH2] (Ac-WTK(Palmitoyl)CNNWHDCWP[dK](DOTA)-NH2; disulfide 4-10) is higher in Kd: 10 to 100 nM for the first, 100 to 300 nM for the second. The first binds more tightly here.

First: CC[C@H](C)[C@H](NC(=O)[C@@H](NC(=O)[C@H](Cc1c[nH]c2ccccc12)NC(=O)CCCCCCCCCCC(=O)O)[C@@H](C)O)C(=O)N[C@H]1CSSC[C@@H](C(=O)N[C@@H](Cc2c[nH]c3ccccc23)C(=O)N2CCC[C@H]2C(=O)N[C@H](CCCCNC(=O)CN2CCN(CC(=O)O)CCN(CC(=O)O)CCN(CC(=O)O)CC2)C(N)=O)NC(=O)[C@H](CC(=O)O)NC(=O)[C@H](Cc2cnc[nH]2)NC(=O)[C@H](Cc2c[nH]c3ccccc23)NC(=O)[C@H](CC(N)=O)NC(=O)[C@H](CC(N)=O)NC1=O [compound 349, C12OH-W-T-I-C(3)-N-N-W-H-D-C(3)-W-P-[D-Lys(DOTA)]-NH2] ({C12 diacid}-WTICNNWHDCWP[dK](DOTA)-NH2; disulfide 4-10)
Second: CC[C@H](C)[C@H](NC(=O)[C@@H](NC(=O)[C@H](Cc1c[nH]c2ccccc12)NC(C)=O)[C@@H](C)O)C(=O)N[C@H]1CSSC[C@@H](C(=O)N[C@@H](Cc2c[nH]c3ccccc23)C(=O)N2CCC[C@H]2C(=O)N[C@H](CCCCNC(=O)CNC(=O)[C@H](CO)NC(=O)CNC(=O)[C@H](CO)NC(=O)CNC(=O)[C@H](CO)NC(=O)CN2CCN(CC(=O)O)CCN(CC(=O)O)CCN(CC(=O)O)CC2)C(N)=O)NC(=O)[C@H](CC(=O)O)NC(=O)[C@H](Cc2cnc[nH]2)NC(=O)[C@H](Cc2ccc3ccccc3c2)NC(=O)[C@H](CC(N)=O)NC(=O)[C@H](CC(N)=O)NC1=O [compound 353, Ac-W-T-I-C(3)-N-N-(2Nal)-H-D-C(3)-W-P-[D-Lys(G-S-G-S-G-S-DOTA)]-NH2] (I: Ac-WTICNN[2Nal]HDCWP[dK]-NH2 / II: {DOTA}-SGSGSG; disulfide I:4-I:10; amide I:13-II:C)
The Kd of the first is higher: 1 to 10 nM for the first, < 1 nM for the second.
